Measured values as given in PubChem BioAssay (NCI).
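These data come from cells grown in 96-well plates and exposed to compound for 48 hours at five concentrations. Abbreviation: GI50, concentration required for 50% inhibition of growth. TGI is the concentration that stops growth completely.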

Legend:
Experiment in all cases: NCI-60 cell line screen, 48 h
RPMI-8226 leukemia = system: RPMI-8226 leukemia
SN12C renal = system: SN12C renal
OVCAR-5 ovarian = system: OVCAR-5 ovarian
COLO 205 colon = system: COLO 205 colon
UO-31 renal = system: UO-31 renal
SNB-19 CNS = system: SNB-19 CNS
K-562 leukemia = system: K-562 leukemia
CCRF-CEM leukemia = system: CCRF-CEM leukemia
M14 melanoma = system: M14 melanoma
HL-60(TB) leukemia = system: HL-60(TB) leukemia
OVCAR-4 ovarian = system: OVCAR-4 ovarian
RXF 393 renal = system: RXF 393 renal
SK-MEL-5 melanoma = system: SK-MEL-5 melanoma
HCT-116 colon = system: HCT-116 colon
NCI-H522 lung = system: NCI-H522 lung
SK-OV-3 ovarian = system: SK-OV-3 ovarian
TK-10 renal = system: TK-10 renal
MALME-3M melanoma = system: MALME-3M melanoma
HT29 colon = system: HT29 colon
NCI-H23 lung = system: NCI-H23 lung
MDA-MB-435 = system: MDA-MB-435
DU-145 prostate = system: DU-145 prostate
KM12 colon = system: KM12 colon
CAKI-1 renal = system: CAKI-1 renal
HS 578T breast = system: HS 578T breast
HCC-2998 colon = system: HCC-2998 colon
SF-268 CNS = system: SF-268 CNS
LOX IMVI melanoma = system: LOX IMVI melanoma
SK-MEL-2 melanoma = system: SK-MEL-2 melanoma
MOLT-4 leukemia = system: MOLT-4 leukemia
MDA-MB-468 breast = system: MDA-MB-468 breast
MDA-MB-231 breast = system: MDA-MB-231 breast
NCI/ADR-RES ovarian = system: NCI/ADR-RES ovarian
SW-620 colon = system: SW-620 colon
SK-MEL-28 melanoma = system: SK-MEL-28 melanoma
HCT-15 colon = system: HCT-15 colon
EKVX NSCLC = system: EKVX NSCLC
T-47D breast = system: T-47D breast
IGROV1 ovarian = system: IGROV1 ovarian
SNB-75 CNS = system: SNB-75 CNS
SR leukemia = system: SR leukemia
UACC-62 melanoma = system: UACC-62 melanoma
ACHN renal = system: ACHN renal
UACC-257 melanoma = system: UACC-257 melanoma
A498 renal = system: A498 renal
SF-539 CNS = system: SF-539 CNS
HOP-92 NSCLC = system: HOP-92 NSCLC

`Cc1ccc2c(c1)nc(-c1ccccc1)n2CC(=O)N=Nc1c(O)[nH]c2ccc(Cl)cc12` gave a GI50 (RPMI-8226 leukemia) of 2.78 µM, a TGI (RPMI-8226 leukemia) of 10.4 µM and a GI50 (SN12C renal) of 1.78 µM. It also gave a TGI (SN12C renal) of 3.54 µM, a GI50 (OVCAR-5 ovarian) of 2.91 µM and a TGI (OVCAR-5 ovarian) of 9.28 µM. For the same compound, the GI50 (COLO 205 colon) was 2.67 µM, the TGI (COLO 205 colon) was 7 µM and the GI50 (UO-31 renal) was 1.38 µM. The TGI (UO-31 renal) was 3.36 µM, the GI50 (SNB-19 CNS) was 2.13 µM and the TGI (SNB-19 CNS) was 5.55 µM. The GI50 (K-562 leukemia) was 3.13 µM, the TGI (K-562 leukemia) was greater than 100 µM and the GI50 (CCRF-CEM leukemia) was 2.41 µM. The TGI (CCRF-CEM leukemia) was 52.9 µM, the GI50 (M14 melanoma) was 2.17 µM and the TGI (M14 melanoma) was 4.77 µM. The GI50 (HL-60(TB) leukemia) was 4.62 µM, the TGI (HL-60(TB) leukemia) was 29.8 µM and the GI50 (OVCAR-4 ovarian) was 2.37 µM. It also gave a TGI (OVCAR-4 ovarian) of 5.93 µM, a GI50 (RXF 393 renal) of 1.5 µM and a TGI (RXF 393 renal) of 3.04 µM. The GI50 (SK-MEL-5 melanoma) was 2.01 µM, the TGI (SK-MEL-5 melanoma) was 4.92 µM and the GI50 (HCT-116 colon) was 2.48 µM. The TGI (HCT-116 colon) was 6.21 µM, the GI50 (NCI-H522 lung) was 1.67 µM and the TGI (NCI-H522 lung) was 3.38 µM. It also gave a GI50 (SK-OV-3 ovarian) of 2.11 µM, a TGI (SK-OV-3 ovarian) of 4.44 µM and a GI50 (TK-10 renal) of 2.79 µM. The TGI (TK-10 renal) was 7.18 µM, the GI50 (MALME-3M melanoma) was 1.87 µM and the TGI (MALME-3M melanoma) was 4.07 µM. The GI50 (HT29 colon) was 1.84 µM, the TGI (HT29 colon) was 3.76 µM and the GI50 (NCI-H23 lung) was 1.7 µM. The TGI (NCI-H23 lung) was 3.35 µM, the GI50 (MDA-MB-435) was 2.38 µM and the TGI (MDA-MB-435) was 5.44 µM. For the same compound, the GI50 (DU-145 prostate) was 2.53 µM, the TGI (DU-145 prostate) was 5.8 µM and the GI50 (KM12 colon) was 2.95 µM. For the same compound, the TGI (KM12 colon) was 9.49 µM, the GI50 (CAKI-1 renal) was 2.18 µM and the TGI (CAKI-1 renal) was 6.64 µM. It also gave a GI50 (HS 578T breast) of 2.09 µM, a TGI (HS 578T breast) of 6.14 µM and a GI50 (HCC-2998 colon) of 1.79 µM. The TGI (HCC-2998 colon) was 3.47 µM, the GI50 (SF-268 CNS) was 2.36 µM and the TGI (SF-268 CNS) was 6.49 µM. For the same compound, the GI50 (LOX IMVI melanoma) was 1.57 µM, the TGI (LOX IMVI melanoma) was 2.98 µM and the GI50 (SK-MEL-2 melanoma) was 10.5 µM. It also gave a TGI (SK-MEL-2 melanoma) of 25 µM, a GI50 (MOLT-4 leukemia) of 2.39 µM and a TGI (MOLT-4 leukemia) of 11.5 µM. For the same compound, the GI50 (MDA-MB-468 breast) was 1.34 µM, the TGI (MDA-MB-468 breast) was 2.77 µM and the GI50 (MDA-MB-231 breast) was 1.83 µM. The TGI (MDA-MB-231 breast) was 3.52 µM, the GI50 (NCI/ADR-RES ovarian) was 1.84 µM and the TGI (NCI/ADR-RES ovarian) was 3.55 µM. The GI50 (SW-620 colon) was 2.07 µM, the TGI (SW-620 colon) was 4.43 µM and the GI50 (SK-MEL-28 melanoma) was 1.88 µM. For the same compound, the TGI (SK-MEL-28 melanoma) was 3.52 µM, the GI50 (HCT-15 colon) was 1.81 µM and the TGI (HCT-15 colon) was 3.57 µM. The GI50 (EKVX NSCLC) was 1.61 µM, the TGI (EKVX NSCLC) was 3.71 µM and the GI50 (T-47D breast) was 1.94 µM. For the same compound, the TGI (T-47D breast) was 5.14 µM, the GI50 (IGROV1 ovarian) was 1.69 µM and the TGI (IGROV1 ovarian) was 3.38 µM. For the same compound, the GI50 (SNB-75 CNS) was 1.52 µM, the TGI (SNB-75 CNS) was 3.39 µM and the GI50 (SR leukemia) was 3.41 µM. For the same compound, the TGI (SR leukemia) was greater than 100 µM, the GI50 (UACC-62 melanoma) was 1.75 µM and the TGI (UACC-62 melanoma) was 3.45 µM. It also gave a GI50 (ACHN renal) of 1.61 µM, a TGI (ACHN renal) of 3.31 µM and a GI50 (UACC-257 melanoma) of 1.86 µM. The TGI (UACC-257 melanoma) was 3.77 µM, the GI50 (A498 renal) was 1.91 µM and the TGI (A498 renal) was 3.93 µM. It also gave a GI50 (SF-539 CNS) of 1.69 µM, a TGI (SF-539 CNS) of 3.29 µM and a GI50 (HOP-92 NSCLC) of 1.57 µM. For the same compound, the TGI (HOP-92 NSCLC) was 3.76 µM.
